Results on one substance are retold here after patent US20170226518A1, “COMPOSITIONS AND METHODS FOR TREATING CANCER” (Autotelic LLC, priority 2016, published 2017).

In the oligonucleotide strings, read from the 5' end, every base follows the letter of its sugar. An asterisk marks phosphorothioate; unmarked linkages are phosphodiester. Other units and linkages are bracketed, terminal groups are in braces. A string of capitals states the bases alone. d = 2'-deoxy (DNA)

Data set [1] can be described thus: Acute single dose toxicity in rats. Format: in vivo. The procedure:
(§1) The clinical starting dose for the 7-days-on and 7-days-off schedule was based on the Lowest-Observed-Adverse-Effect-Level (LOAEL) devoid of severe toxicity in Cynomolgus monkeys as the most relevant species. This LOAEL of 4 mg/kg body weight (b.w.)/day is equivalent to approximately 1.3 mg/kg b.w./day or 48 mg/m^2/day on a body surface area basis in human adults. These numbers were rounded down and the safe starting dose was defined at 40 mg/m^2/day, equivalent to approximately 1 mg/kg b.w./day in humans. An alternative approach would have been based on the lowest lethal dose (LLD) of 300 mg/kg b.w. obtained in the acute single dose toxicity study in mice (in rats it was determined at 1000 mg/kg), at which 1 of 10 mice died (LLD10). According to the standard method, 10% of this dose (30 mg/kg) on a body surface area basis would then be defined as the clinical starting dose resulting in 90 mg/m^2/day. In the end, the lower of the two alternatives was chosen as starting dose.

In data set [2] the test system is pancreatic cancer. Nature of the data set: Phase I/II study P-001: PFS and OS in pancreatic cancer patients. Format: in vivo, human. Particulars: for OS: pancreatic cancer; for OS (overall survival) / PFS (progression free survival): second line pancreatic cancer patients, 4 days on and 10 days off. The protocol: At screening, up to 10 “measurable lesions” (i.e. lesions that could be accurately measured in at least 1 dimension with a longest diameter of 2 cm) representative of all involved organs were identified as “target lesions” for tumor response assessment and were measured and documented. All other lesions were defined and recorded as “non-target lesions”. Tumor response was determined by the local investigator every 8 weeks after start of the first trabedersen cycle during follow-up visits, irrespective of whether the patient was still on treatment or off treatment. The tumor assessment was based on Response Evaluation Criteria in Solid Tumors (RECIST 1.0) criteria. The categories of overall tumor response are as follows: (1) Complete response (CR): disappearance of all target and non-target lesions and normalization of tumor marker level; (2) Partial response (PR): at least 30% decrease in the sum of the longest diameter (LD) of target lesions (baseline sum LD as reference) and/or persistence of one or more non-target lesions and/or maintenance of tumor marker level above normal limits; (3) Stable disease (SD): less than 30% decrease or less than 20% increase in sum LD target lesions (smallest sum LD since treatment start as reference) and/or persistence of one or more non-target lesions and/or maintenance of tumor marker level above normal limits; (4) Progressive disease (PD) At least 20% increase in sum LD target lesions (smallest sum LD since treatment start as reference) and/or unequivocal progression of existing nontarget lesions and/or appearance of one or more new lesions; and (5) Unknown.
Progression-free survival (PFS) was defined as the time from Day 1 until tumor progression or death from any cause. The date of progression was either the date of the image showing progression or the date of treatment termination in case one of the reasons for treatment termination was tumor progression (referring to clinical progression as assessed by the Investigator), whichever occurred first.
Overall survival (OS) was defined as the time from Day 1 until death from any cause. All patients were followed for survival during the follow-up assessments every 8 weeks. The survival status was documented at the Final Visit (Day 29) and during the 8-weekly post-treatment follow-up assessments, and was continued to be collected after study closure until database lock or until the patient was lost to follow-up.
There were […] line patients and 11 third line and beyond on the 4 days on and 10 days off regimen. The PFS/OS (progression free survival/overall survival ratio) of these second line patients in months were: 1.87/5.60 (N=6), 1.87/9.93 (N=11) and 2.72/11.80 (N=5) at increasing mean dose of 140 mg/m^2/day, 167 mg/m^2/day, and 196 mg/m^2/day, respectively. The OS of 9.93 and 11.80 are higher than the highest reported in the 65 trials reported in the literature during 1997-2015 (range=2.50-9.20/median=5.50). The corresponding PFS values were in line with reported literature (range=0.00-7.65/median=2.43). […] Trabedersen itself was not having an impact on the tumor (FIG. 1).

In data set [3] the test system is TGFβ2. The experiment in a line: TGFβ2 secretion in A-172 glioma cells. Type of data set: cell-based. Particulars: 7 days, treatment schedule 2*2/1*3 d. The procedure:
(§2) A-172 glioma cells were treated with a combination of AP12009 (trabedersen) 0 to 10 μM) and different concentrations of TMZ (temozolomide) for 7 days (treatment schedule 2*2/1*3 d).
(§3) In summary there is no clear beneficial effect in combining AP12009 with TMZ in A-172 cells.

The test system of data set [4] is A-172 glioma cells. Nature of the data set: Migration of A-172 glioma cells. Format: cell-based. Particulars: AP12009 10 μM as monotherapy, compared with untreated control. The procedure: as §2
In data set [5] the test system is A-172 glioma cells. The experiment in a line: Proliferation of A-172 glioma cells. Type of data set: cell-based. Particulars: 7 days, treatment schedule 2*2/1*3 d. The procedure: as §2, §3
Data set [6] in a line: Preclinical toxicology in Cynomolgus monkeys (LOAEL). Type of data set: in vivo. The procedure:
as §1

[7] abbreviates: mean dose 167 mg/m^2/day (N=11).

Take “trabedersen: TGFβ2 specific phosphorothioate antisense oligodeoxynucleotide with the sequence 5′-CGGCATGTCTATTTTGTA-3′ (SEQ ID No: 1) (antisense dC*dG*dG*dC*dA*dT*dG*dT*dC*dT*dA*dT*dT*dT*dT*dG*dT*dA)”: the “lowest lethal dose (LLD)” value in data set [1] was 1000 mg/kg. Moreover, the “overall survival (OS) rate versus dose” value in data set [2] (pancreatic cancer patients, trabedersen as second line treatment (FIG. 1)) is listed as “dose dependent increase”. Moreover, the OS is on record as 14.7 mos in data set [2] (4/10 cohort treated with subsequent chemotherapies), 2.93 mos in data set [2] (4/10 cohort without subsequent chemotherapies), 2.80 mos in data set [2] (chemotherapy on 2nd line followed with trabedersen 4/10 regimen as third line (N=9)) and 9.93 mos in data set [2] (trabedersen first on 2nd line followed with subsequent therapies (N=11)). Besides, the “OS (overall survival)” value came to 5.60 months in data set [2] (mean dose 140 mg/m^2/day (N=6)), 9.93 months in data set [2] (setting [7]) and 11.80 months in data set [2] (mean dose 196 mg/m^2/day (N=5)). The “PFS (progression free survival)” value in data set [2] (mean dose 140 mg/m^2/day (N=6)) came out at 1.87 months; in data set [2] (setting [7]), 1.87 months; in data set [2] (mean dose 196 mg/m^2/day (N=5)), 2.72 months. Moreover, the “effect on TGFβ2 secretion” value in data set [3] is “strongly reduced TGFβ2”. In data set [4], the “effect on migration of A-172 cells” value is listed as “did not affect migration”. For the same substance, the “effect on cell proliferation” value in data set [5] is on record as “slightly reduced cell proliferation”. Further, in data set [6], the “Lowest-Observed-Adverse-Effect-Level (LOAEL) devoid of severe toxicity” value is reported as 4 mg/kg body weight (b.w.)/day.
